Laboratory results taken from patent US20200270309A1, “MALEIMIDE GROUP-MODIFIED ANGIOGENESIS INHIBITOR HM-1 AND USE THEREOF” (NANJING ANJI BIOLOGICAL TECHNOLOGY CO., LTD, priority 2017, published 2020).
Marks after values point to notes of the source that are not given here. Peptide text beside a SMILES is read from it. * marks the point of attachment. X65 = O=C1C=CC(=O)N1c1cccc(CCCCCCCCCCCCC(=O)*)c1; X84 = O=C1C=CC(=O)N1c1ccccc1CCCCCCCCCCCCC(=O)*; X68 = O=C1C=CC(=O)N1c1ccccc1CCCCCCCCCCCC(=O)*; X60 = O=C1C=CC(=O)N1c1ccccc1CCCCCCCCCC(=O)*; X54 = O=C1C=CC(=O)N1c1cccc(CCCCCCC(=O)*)c1; X55 = O=C1C=CC(=O)N1c1ccccc1CCCCCCCCC(=O)*; X52 = O=C1C=CC(=O)N1c1ccccc1CCCCCCCC(=O)*; X71 = O=C1C=CC(=O)N1c1cccc(CCCCCC(=O)*)c1; X46 = O=C1C=CC(=O)N1c1cccc(CCCCC(=O)*)c1; X63 = O=C1C=CC(=O)N1c1ccccc1CCCCCCC(=O)*; X49 = O=C1C=CC(=O)N1c1ccccc1CCCCCC(=O)*; X61 = O=C1C=CC(=O)N1c1cccc(CCCC(=O)*)c1; X79 = O=C1C=CC(=O)N1c1cccc(CCC(=O)*)c1

Test system: xylene-induced ear swelling
Experiment: Xylene-induced mouse ear swelling
Format: in vivo
Details: Kunming mice, injected once a day for 5 days; for Swelling degree / Swelling degree (mg): right minus left ear piece weight 2 h after xylene; for Inhibition rate (%): xylene-induced ear swelling
Procedure: Kunming mice were taken, a normal saline group was taken as a blank control group, an aspirin group (200 mg/kg) was taken as a positive control group, and X1-X90 administration groups were taken as test groups. The mice were injected once a day for 5 consecutive days. The blank control group was given an equal volume of normal saline. One hour after the last administration, 0.05 mL of xylene was applied to both sides of the right ear of each mouse to cause inflammation, while no drug was applied to the left ear as a normal ear. Two hours later, the mice were put to death by dislocation. Two ears were cut along the auricle. Ear pieces were taken with a puncher and weighed, and the swelling degree and the swelling rate were calculated. Swelling degree=right ear piece weight-left ear piece weight, swelling rate=(swelling degree/left ear piece weight)*100%. Statistical t-test was conducted on the experimental results. *P<0.05 indicates significant difference, and **P<0.01 indicates extremely significant difference.

## C[C@H](NC(=O)CNC(=O)[C@H](CCCNC(=N)N)NC(=O)CCc1cccc(N2C(=O)C=CC2=O)c1)C(=O)N[C@@H](CC(=O)O)C(=O)N[C@@H](CCCNC(=N)N)C(=O)N[C@@H](C)C(=O)NCC(=O)NCC(=O)NCC(=O)NCC(=O)N[C@@H](CCCNC(=N)N)C(=O)NCC(=O)N[C@@H](CC(=O)O)C(=O)O [X26] (X79-RGADRAGGGGRGD-OH)
Dose 2 mg/kg
  Swelling degree: 5.88 ± 0.72 mg
  Inhibition rate (%): 5.62%
Dose 4 mg/kg
  Swelling degree: 5.78 ± 0.62 mg
  Inhibition rate (%): 7.22%
Dose 8 mg/kg
  Swelling degree (mg): 4.54 ± 0.61** mg
  Inhibition rate (%): 49.76%

## C[C@H](NC(=O)CNC(=O)[C@H](CCCNC(=N)N)NC(=O)CCCCCCCc1ccccc1N1C(=O)C=CC1=O)C(=O)N[C@@H](CC(=O)O)C(=O)N[C@@H](CCCNC(=N)N)C(=O)N[C@@H](C)C(=O)NCC(=O)NCC(=O)NCC(=O)NCC(=O)N[C@@H](CCCNC(=N)N)C(=O)NCC(=O)N[C@@H](CC(=O)O)C(=O)O [X19] (X52-RGADRAGGGGRGD-OH)
Dose 2 mg/kg
  Swelling degree (mg): 4.98 ± 0.72* mg
  Inhibition rate (%): 20.06%
Dose 4 mg/kg
  Swelling degree (mg): 3.97 ± 0.61** mg
  Inhibition rate (%): 36.28%
Dose 8 mg/kg
  Swelling degree (mg): 3.8 ± 0.03** mg
  Inhibition rate (%): 39.00%

## C[C@H](NC(=O)CNC(=O)[C@H](CCCNC(=N)N)NC(=O)CCCCCCCCCCCc1ccccc1N1C(=O)C=CC1=O)C(=O)N[C@@H](CC(=O)O)C(=O)N[C@@H](CCCNC(=N)N)C(=O)N[C@@H](C)C(=O)NCC(=O)NCC(=O)NCC(=O)NCC(=O)N[C@@H](CCCNC(=N)N)C(=O)NCC(=O)N[C@@H](CC(=O)O)C(=O)O [X23] (X68-RGADRAGGGGRGD-OH)
Dose 2 mg/kg
  Swelling degree: 5.64 ± 0.84 mg
  Inhibition rate (%): 9.47%
Dose 4 mg/kg
  Swelling degree (mg): 3.63 ± 0.51** mg
  Inhibition rate (%): 41.73%
Dose 8 mg/kg
  Swelling degree (mg): 3.47 ± 0.06** mg
  Inhibition rate (%): 44.30%

## C[C@H](NC(=O)CNC(=O)[C@H](CCCNC(=N)N)NC(=O)CCCCCc1ccccc1N1C(=O)C=CC1=O)C(=O)N[C@@H](CC(=O)O)C(=O)N[C@@H](CCCNC(=N)N)C(=O)N[C@@H](C)C(=O)NCC(=O)NCC(=O)NCC(=O)NCC(=O)N[C@@H](CCCNC(=N)N)C(=O)NCC(=O)N[C@@H](CC(=O)O)C(=O)O [X17] (X49-RGADRAGGGGRGD-OH)
Dose 2 mg/kg
  Swelling degree (mg): 4.65 ± 0.79* mg
  Inhibition rate (%): 25.36%
Dose 4 mg/kg
  Swelling degree (mg): 4.43 ± 0.75* mg
  Inhibition rate (%): 28.89%
Dose 8 mg/kg
  Swelling degree (mg): 3.53 ± 0.1** mg
  Inhibition rate (%): 43.34%

## C[C@H](NC(=O)CNC(=O)[C@H](CCCNC(=N)N)NC(=O)CCCCCCCCCCCCc1ccccc1N1C(=O)C=CC1=O)C(=O)N[C@@H](CC(=O)O)C(=O)N[C@@H](CCCNC(=N)N)C(=O)N[C@@H](C)C(=O)NCC(=O)NCC(=O)NCC(=O)NCC(=O)N[C@@H](CCCNC(=N)N)C(=O)NCC(=O)N[C@@H](CC(=O)O)C(=O)O [X24] (X84-RGADRAGGGGRGD-OH)
Dose 2 mg/kg
  Swelling degree: 5.25 ± 0.06 mg
  Inhibition rate (%): 15.73%
Dose 4 mg/kg
  Swelling degree (mg): 4.98 ± 0.19* mg
  Inhibition rate (%): 20.06%
Dose 8 mg/kg
  Swelling degree (mg): 4.34 ± 0.68** mg
  Inhibition rate (%): 30.34%

## C[C@H](NC(=O)CNC(=O)[C@H](CCCNC(=N)N)NC(=O)CCCCCCc1ccccc1N1C(=O)C=CC1=O)C(=O)N[C@@H](CC(=O)O)C(=O)N[C@@H](CCCNC(=N)N)C(=O)N[C@@H](C)C(=O)NCC(=O)NCC(=O)NCC(=O)NCC(=O)N[C@@H](CCCNC(=N)N)C(=O)NCC(=O)N[C@@H](CC(=O)O)C(=O)O [X18] (X63-RGADRAGGGGRGD-OH)
Dose 2 mg/kg
  Swelling degree: 5.42 ± 0.18 mg
  Inhibition rate (%): 13.00%
Dose 4 mg/kg
  Swelling degree: 5.28 ± 0.46 mg
  Inhibition rate (%): 15.25%
Dose 8 mg/kg
  Swelling degree (mg): 4.18 ± 0.9** mg
  Inhibition rate (%): 32.91%

## C[C@H](NC(=O)CNC(=O)[C@H](CCCNC(=N)N)NC(=O)CCCCCCCCCc1ccccc1N1C(=O)C=CC1=O)C(=O)N[C@@H](CC(=O)O)C(=O)N[C@@H](CCCNC(=N)N)C(=O)N[C@@H](C)C(=O)NCC(=O)NCC(=O)NCC(=O)NCC(=O)N[C@@H](CCCNC(=N)N)C(=O)NCC(=O)N[C@@H](CC(=O)O)C(=O)O [X21] (X60-RGADRAGGGGRGD-OH)
Dose 2 mg/kg
  Swelling degree: 5.39 ± 0.39 mg
  Inhibition rate (%): 13.48%
Dose 4 mg/kg
  Swelling degree (mg): 4.97 ± 0.14* mg
  Inhibition rate (%): 20.22%
Dose 8 mg/kg
  Swelling degree (mg): 3.15 ± 0.42** mg
  Inhibition rate (%): 49.44%

## C[C@H](NC(=O)CNC(=O)[C@H](CCCNC(=N)N)NC(=O)CCCCCCCCc1ccccc1N1C(=O)C=CC1=O)C(=O)N[C@@H](CC(=O)O)C(=O)N[C@@H](CCCNC(=N)N)C(=O)N[C@@H](C)C(=O)NCC(=O)NCC(=O)NCC(=O)NCC(=O)N[C@@H](CCCNC(=N)N)C(=O)NCC(=O)N[C@@H](CC(=O)O)C(=O)O [X20] (X55-RGADRAGGGGRGD-OH)
Dose 2 mg/kg
  Swelling degree: 5.72 ± 0.01 mg
  Inhibition rate (%): 8.19%
Dose 4 mg/kg
  Swelling degree (mg): 3.78 ± 0.88** mg
  Inhibition rate (%): 39.33%
Dose 8 mg/kg
  Swelling degree (mg): 3.47 ± 0.07** mg
  Inhibition rate (%): 44.30%

## C[C@H](NC(=O)CNC(=O)[C@H](CCCNC(=N)N)NC(=O)CCCCCCc1cccc(N2C(=O)C=CC2=O)c1)C(=O)N[C@@H](CC(=O)O)C(=O)N[C@@H](CCCNC(=N)N)C(=O)N[C@@H](C)C(=O)NCC(=O)NCC(=O)NCC(=O)NCC(=O)N[C@@H](CCCNC(=N)N)C(=O)NCC(=O)N[C@@H](CC(=O)O)C(=O)O [X30] (X54-RGADRAGGGGRGD-OH)
Dose 2 mg/kg
  Swelling degree: 5.19 ± 0.57 mg
  Inhibition rate (%): 16.69%
Dose 4 mg/kg
  Swelling degree: 5.07 ± 0.49 mg
  Inhibition rate (%): 18.62%
Dose 8 mg/kg
  Swelling degree (mg): 3.77 ± 0.38** mg
  Inhibition rate (%): 39.49%

## C[C@H](NC(=O)CNC(=O)[C@H](CCCNC(=N)N)NC(=O)CCCc1cccc(N2C(=O)C=CC2=O)c1)C(=O)N[C@@H](CC(=O)O)C(=O)N[C@@H](CCCNC(=N)N)C(=O)N[C@@H](C)C(=O)NCC(=O)NCC(=O)NCC(=O)NCC(=O)N[C@@H](CCCNC(=N)N)C(=O)NCC(=O)N[C@@H](CC(=O)O)C(=O)O [X27] (X61-RGADRAGGGGRGD-OH)
Dose 2 mg/kg
  Swelling degree: 5.36 ± 0.32 mg
  Inhibition rate (%): 13.96%
Dose 4 mg/kg
  Swelling degree (mg): 4.76 ± 0.89* mg
  Inhibition rate (%): 23.60%
Dose 8 mg/kg
  Swelling degree (mg): 3.13 ± 0.38* mg
  Inhibition rate (%): 27.13%

## C[C@H](NC(=O)CNC(=O)[C@H](CCCNC(=N)N)NC(=O)CCCCCCCCCCCCc1cccc(N2C(=O)C=CC2=O)c1)C(=O)N[C@@H](CC(=O)O)C(=O)N[C@@H](CCCNC(=N)N)C(=O)N[C@@H](C)C(=O)NCC(=O)NCC(=O)NCC(=O)NCC(=O)N[C@@H](CCCNC(=N)N)C(=O)NCC(=O)N[C@@H](CC(=O)O)C(=O)O [X36] (X65-RGADRAGGGGRGD-OH)
Dose 2 mg/kg
  Swelling degree: 5.37 ± 0.84 mg
  Inhibition rate (%): 13.80%
Dose 4 mg/kg
  Swelling degree: 5.37 ± 0.21 mg
  Inhibition rate (%): 13.80%
Dose 8 mg/kg
  Swelling degree (mg): 4.7 ± 0.97* mg
  Inhibition rate (%): 24.56%

## C[C@H](NC(=O)CNC(=O)[C@H](CCCNC(=N)N)NC(=O)CCCCCc1cccc(N2C(=O)C=CC2=O)c1)C(=O)N[C@@H](CC(=O)O)C(=O)N[C@@H](CCCNC(=N)N)C(=O)N[C@@H](C)C(=O)NCC(=O)NCC(=O)NCC(=O)NCC(=O)N[C@@H](CCCNC(=N)N)C(=O)NCC(=O)N[C@@H](CC(=O)O)C(=O)O [X29] (X71-RGADRAGGGGRGD-OH)
Dose 2 mg/kg
  Swelling degree: 5.43 ± 0.91 mg
  Inhibition rate (%): 12.84%
Dose 4 mg/kg
  Swelling degree (mg): 4.96 ± 0.1* mg
  Inhibition rate (%): 20.39%
Dose 8 mg/kg
  Swelling degree (mg): 3.86 ± 0.45** mg
  Inhibition rate (%): 38.04%

## C[C@H](NC(=O)CNC(=O)[C@H](CCCNC(=N)N)NC(=O)CCCCc1cccc(N2C(=O)C=CC2=O)c1)C(=O)N[C@@H](CC(=O)O)C(=O)N[C@@H](CCCNC(=N)N)C(=O)N[C@@H](C)C(=O)NCC(=O)NCC(=O)NCC(=O)NCC(=O)N[C@@H](CCCNC(=N)N)C(=O)NCC(=O)N[C@@H](CC(=O)O)C(=O)O [X28] (X46-RGADRAGGGGRGD-OH)
Dose 2 mg/kg
  Swelling degree (mg): 5.25 ± 0.56** mg
  Inhibition rate (%): 33.87%
Dose 4 mg/kg
  Swelling degree: 4.86 ± 0.63 mg
  Inhibition rate (%): 15.73%
Dose 8 mg/kg
  Swelling degree (mg): 4.12 ± 0.93* mg
  Inhibition rate (%): 21.99%
